Source: patent publication US20260042764A1, “COMPOSITIONS AND METHODS FOR INHIBITION OF KRAS” (TheRas, Inc., priority 2022, published 2026)

Tests used:
[1] = target: T1, Avi-KRAS G12D (1-169) GppNHp/RAF1 RBD-3xFLAG (52-151) (Homo sapiens, UniProt P01116, G12D); test: Raf1-KRAS G12D-GppNHP disruption HTRF assay (Biological Example 1); assay type: binding
T1 construct: Avi-KRAS G12D (1-169)
In short: (§1)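 First, protein mix in Tris pH 7.5 buffer with NaCl, MgCl2, BSA, Tween and 10% DMSO is incubated 1 h at room temperature. Next, reagent mix is added and incubated a further 1 h at room temperature. Finally, HTRF is read and activity normalized to DMSO.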

[2] = system: SW620 cells (KRAS G12V); test: Cell-based pERK HTRF assay in SW620 cell (Biological Example 4); details: Homo sapiens, SW-620, SW620 (KRAS G12V) cells, pERK HTRF
Description: A pERK assay (Perkin Elmer) was used to determine the effectiveness of compounds in disrupting KRAS G12V protein/effector signaling in cells.
On Day 1, cells (SW620) were seeded into 96-well plates at 3×10^4 cells/well in 80 μL complete growth media (RPMI, 10% FBS).
On Day 2, cells were treated with compounds at 0.25% DMSO. The source plate was created with compounds diluted in media at 5-fold the final assay concentration. The compounds were run in a 9-point concentration curve starting at 1 μM, with a half-log dilution between concentrations. Twenty μL was transferred onto the cell plates (final volume in wells was 100 μL). Plates were harvested after 4 h incubation by aspirating media and adding kit-supplied 1x supplemented lysis buffer to all wells (50 μL per well). Plates were then placed on a plate shaker and incubated at 850 rpm for an additional 30 min.
Antibody mixture solution was prepared by diluting aliquoted d2 and Eu Cryptate antibodies 1:20 in kit supplied detection buffer and mixing the diluted antibodies solutions (1:1 v:v).
Samples were homogenized by pipetting up and down and then transferred (16 μL of cell lysates) from the 96-well cell culture plate to two wells of the HTRF 384-well detection plate containing the antibody solution. Plates were centrifuged (524 g for Imin) and allowed to incubate between 4 and 24 h at room temperature. […] Plates were centrifuged again (524 g for 1 min), then analyzed on the En Vision plate reader using the following settings: Excitation 320 nm, Bandwidth 75 nm; Emission 615 nm, Bandwidth 85 nm; Gain 100%; Flashes 100; Lag 60 μs.

[3] = target: T2, Avi-KRAS G12R (1-169) GppNHp/RAF1 RBD-3xFLAG (52-151) (Homo sapiens, UniProt P01116, G12R); test: Raf1-KRAS G12R-GppNHP disruption HTRF assay (Biological Example 1); assay type: binding
T2 construct: Avi-KRAS G12R (1-169)
In short: as §1

[4] = system: GP2d cells (KRAS G12D); test: Cell-based pERK HTRF assay in GP2d cell (Biological Example 2); details: GP2d, GP2d (KRAS G12D) cells, pERK HTRF
In short: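 60 min compound, 0.25% DMSO, 9-pt half-log curve from 1 μM or 100 nM; DMEM/10% FBS.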

[5] = target: T3, Avi-KRAS WT (1-169) GppNHp/RAF1 RBD-3xFLAG (52-151) (Homo sapiens, UniProt P01116); test: Raf1-KRAS WT-GppNHP disruption HTRF assay (Biological Example 1); assay type: binding
T3 construct: Avi-KRAS WT (1-169)
In short: as §1

[6] = target: T4, Avi-KRAS G12V (1-169) GppNHp/RAF1 RBD-3xFLAG (52-151) (Homo sapiens, UniProt P01116, G12V); test: Raf1-KRAS G12V-GppNHP disruption HTRF assay (Biological Example 1); assay type: binding
T4 construct: Avi-KRAS G12V (1-169)
In short: as §1

[7] = KRAS G12D, GppNHp-loaded, class symbols
[8] = KRAS G12R, GppNHp-loaded, class symbols
[9] = KRAS WT, GppNHp-loaded, class symbols
[10] = KRAS G12V, GppNHp-loaded, class symbols
[11] = KRAS G12D, GppNHp-loaded, Table 11
[12] = KRAS G12R, GppNHp-loaded, Table 11
[13] = KRAS WT, GppNHp-loaded, Table 11
[14] = KRAS G12V, GppNHp-loaded, Table 11

T2 sequence (P01116 1-169 isoform P01116-2 G12R): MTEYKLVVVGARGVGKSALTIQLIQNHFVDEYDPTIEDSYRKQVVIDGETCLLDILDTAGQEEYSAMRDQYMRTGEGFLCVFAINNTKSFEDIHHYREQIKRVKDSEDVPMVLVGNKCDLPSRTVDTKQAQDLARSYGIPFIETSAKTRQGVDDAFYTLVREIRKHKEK
T3 sequence (P01116 1-169 isoform P01116-2): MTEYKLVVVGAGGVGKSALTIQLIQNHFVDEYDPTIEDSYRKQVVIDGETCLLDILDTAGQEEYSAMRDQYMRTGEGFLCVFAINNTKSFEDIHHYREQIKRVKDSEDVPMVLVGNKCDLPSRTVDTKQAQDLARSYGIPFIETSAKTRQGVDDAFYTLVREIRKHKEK
T4 sequence (P01116 1-169 isoform P01116-2 G12V): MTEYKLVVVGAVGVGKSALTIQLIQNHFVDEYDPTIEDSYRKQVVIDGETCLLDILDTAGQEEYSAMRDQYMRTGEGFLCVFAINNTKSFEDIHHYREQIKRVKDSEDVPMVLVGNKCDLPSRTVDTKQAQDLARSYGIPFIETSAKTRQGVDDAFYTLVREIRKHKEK
T1 sequence (P01116 1-169 isoform P01116-2 G12D): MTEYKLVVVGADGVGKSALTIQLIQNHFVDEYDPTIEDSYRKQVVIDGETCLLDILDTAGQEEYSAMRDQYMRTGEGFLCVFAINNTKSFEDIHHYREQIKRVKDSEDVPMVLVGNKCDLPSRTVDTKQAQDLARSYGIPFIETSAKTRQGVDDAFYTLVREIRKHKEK

| SMILES | IC50 [2] [nM] | IC50 [4] [nM] | IC50 [1, 11] [nM] | IC50 [3, 12] [nM] | IC50 [5, 13] [nM] | IC50 [6, 14] [nM] | also measured |
| --- | --- | --- | --- | --- | --- | --- | --- |
| Cc1nnn2c1CN(c1nc(OC[C@@]34CCCN3C[C@H](F)C4)nc3c(F)c(-c4ccc(F)c5sc(N)c(C#N)c45)c(C(F)(F)F)cc13)[C@@H](C)C2 (atropisomer, axis not shown) [Compound 624] |  |  |  |  |  |  | IC50 [1, 7]: 100 to 1000 nM; IC50 ([2]; class symbols): < 100 nM; IC50 [3, 8]: 100 to 1000 nM; IC50 ([4]; class symbols): < 100 nM; IC50 [5, 9]: 100 to 1000 nM; IC50 [6, 10]: 100 to 1000 nM |
| CCN(c1nc(OC[C@@]23CCCN2C[C@H](F)C3)nc2c(F)c(-c3ccc(F)c4sc(N)c(C#N)c34)c(C(F)(F)F)cc12)[C@H]1CCN(C(=O)OCCF)C1 (atropisomer, axis not shown) [Compound 687] |  |  |  |  |  |  | IC50 [1, 7]: < 100 nM; IC50 ([2]; class symbols): < 100 nM; IC50 [3, 8]: < 100 nM; IC50 ([4]; class symbols): < 100 nM; IC50 [5, 9]: < 100 nM; IC50 [6, 10]: < 100 nM |
| CCN(c1nc(OC[C@@]23CCCN2C[C@H](F)C3)nc2c(F)c(-c3ccc(F)c4sc(N)c(C#N)c34)c(C(F)(F)F)cc12)[C@@H]1CCN(C(=O)C2CC2)[C@@H]1C [Compound 406] | < 100 | < 100 |  |  |  |  | IC50 ([1]; KRAS G12D-GppNHp/RAF1 RBD HTRF): 100 to 1000 nM; IC50 ([3]; KRAS G12R-GppNHp/RAF1 RBD HTRF): 100 to 1000 nM; IC50 ([5]; KRAS WT-GppNHp/RAF1 RBD HTRF): 100 to 1000 nM; IC50 ([6]; KRAS G12V-GppNHp/RAF1 RBD HTRF): 100 to 1000 nM |
| C[C@@H]1COC[C@H](C)N1c1nc(OC[C@@]23CCCN2C[C@H](F)C3)nc2c(F)c(-c3ccc(F)c4sc(N)c(C#N)c34)c(C(F)(F)F)cc12 [Compound 201] | < 100 | < 100 | 100 to 1000 | 100 to 1000 | 100 to 1000 | 100 to 1000 |  |
| C[C@@H]1[C@H](N(C)c2nc(OC[C@]34C[C@@H](F)CN3CC3(CC3)C4)nc3c(F)c(-c4ccc(F)c5sc(N)c(C#N)c45)c(C(F)(F)F)cc23)CCN1C(=O)C1CC1 [Compound 564] | < 100 | < 100 |  |  |  |  | IC50 ([1]; KRAS G12D-GppNHp/RAF1 RBD HTRF): 100 to 1000 nM; IC50 ([3]; KRAS G12R-GppNHp/RAF1 RBD HTRF): 100 to 1000 nM; IC50 ([5]; KRAS WT-GppNHp/RAF1 RBD HTRF): 100 to 1000 nM; IC50 ([6]; KRAS G12V-GppNHp/RAF1 RBD HTRF): 1000 to 10000 nM |
| N#Cc1c(N)sc2c(F)ccc(-c3c(C(F)(F)F)cc4c(N5CC6(CC6)C5)nc(OC[C@@]56CCCN5C[C@H](F)C6)nc4c3F)c12 [Compound 204] | 100 to 1000 | 100 to 1000 | 1000 to 10000 | 1000 to 10000 | 1000 to 10000 | 1000 to 10000 |  |
| CC(=O)N1CC[C@@H](N(C)c2nc(OC[C@@]34CCCN3C[C@H](F)C4)nc3c(F)c(-c4ccc(F)c5sc(N)c(C#N)c45)c(C(F)(F)F)cc23)C1 [Compound 112] | < 100 | < 100 | 100 to 1000 | 100 to 1000 | 100 to 1000 | 100 to 1000 |  |
| CCN(c1nc(OC[C@@]23CCCN2C[C@H](F)C3)nc2c(F)c(-c3ccc(F)c4sc(N)c(C#N)c34)c(C(F)(F)F)cc12)[C@H]1C[C@@H]2CCOC(=O)N2C1 (atropisomer, axis not shown) [Compound 665] |  |  |  |  |  |  | IC50 [1, 7]: 100 to 1000 nM; IC50 ([2]; class symbols): < 100 nM; IC50 [3, 8]: 100 to 1000 nM; IC50 ([4]; class symbols): < 100 nM; IC50 [5, 9]: 100 to 1000 nM; IC50 [6, 10]: 100 to 1000 nM |
| CN(c1nc(OC[C@@]23CCCN2C[C@H](F)C3)nc2c(F)c(-c3ccc(F)c4sc(N)c(C#N)c34)c(C(F)(F)F)cc12)C1CC(F)C1 (some centres unmarked) [Compound 161] | < 100 |  | 100 to 1000 | 100 to 1000 | 100 to 1000 | 100 to 1000 |  |
| CCN(c1nc(OC[C@@]23CCCN2C[C@H](F)C3)nc2c(F)c(-c3ccc(F)c4sc(N)c(C#N)c34)c(C(F)(F)F)cc12)[C@@H]1CCN(C(C)=O)[C@@H]1C [Compound 407] | < 100 |  |  |  |  |  | IC50 ([1]; KRAS G12D-GppNHp/RAF1 RBD HTRF): 100 to 1000 nM; IC50 ([3]; KRAS G12R-GppNHp/RAF1 RBD HTRF): 100 to 1000 nM; IC50 ([5]; KRAS WT-GppNHp/RAF1 RBD HTRF): 100 to 1000 nM; IC50 ([6]; KRAS G12V-GppNHp/RAF1 RBD HTRF): 100 to 1000 nM |
| CCN(CCC#N)c1nc(OC[C@@]23CCCN2C[C@H](F)C3)nc2c(F)c(-c3ccc(F)c4sc(N)c(C#N)c34)c(C(F)(F)F)cc12 [Compound 166] |  | < 100 | 100 to 1000 | 100 to 1000 | 100 to 1000 | 100 to 1000 |  |
| CC1(CO)CCN(c2nc(OCC34CCCN3CC(F)C4)nc3c(F)c(-c4ccc(F)c5sc(N)c(C#N)c45)c(C(F)(F)F)cc23)CC1 (centres unmarked) [Compound 48] |  | < 100 | 100 to 1000 | 100 to 1000 | 100 to 1000 | 100 to 1000 |  |
| CC(=O)N1CCC(N(C)c2nc(OC[C@@]34CCCN3C[C@H](F)C4)nc3c(F)c(-c4ccc(F)c5sc(N)c(C#N)c45)c(C(F)(F)F)cc23)[C@H]1C (some centres unmarked) [Compound 114] |  | < 100 | 100 to 1000 | 100 to 1000 | 100 to 1000 | 100 to 1000 |  |
| N#Cc1c(N)sc2c(F)ccc(-c3c(C(F)(F)F)cc4c(N5CCC(F)(F)C5)nc(OC[C@@]56CCCN5C[C@H](F)C6)nc4c3F)c12 [Compound 159] |  | < 100 | 100 to 1000 | 100 to 1000 | 100 to 1000 | 1000 to 10000 |  |
| CN(c1nc(OC[C@@]23CCCN2C[C@H](F)C3)nc2c(F)c(-c3ccc(F)c4sc(N)c(C#N)c34)c(C(F)(F)F)cc12)C(CO)CO [Compound 80] |  | < 100 | < 100 | 100 to 1000 | 100 to 1000 | 100 to 1000 |  |
| C[C@@H](CO)N(C)c1nc(OC[C@@]23CCCN2C[C@H](F)C3)nc2c(F)c(-c3ccc(F)c4sc(N)c(C#N)c34)c(C(F)(F)F)cc12 [Compound 77] |  | < 100 | < 100 | 100 to 1000 | 100 to 1000 | 100 to 1000 |  |
| CCN(CCO)c1nc(OC[C@@H]2C[C@@H](F)CN2C)nc2c(F)c(-c3ccc(F)c4sc(N)c(C#N)c34)c(C(F)(F)F)cc12 [Compound 177] |  | < 100 | 100 to 1000 | 100 to 1000 | 100 to 1000 | 100 to 1000 |  |
| CCC(=O)N1CC[C@@H](N(C)c2nc(OC[C@@]34CCCN3C[C@H](F)C4)nc3c(F)c(-c4ccc(F)c5sc(N)c(C#N)c45)c(C(F)(F)F)cc23)C1 [Compound 113] |  | < 100 | 100 to 1000 | 100 to 1000 | 100 to 1000 | 100 to 1000 |  |
